Measurements taken from the supplement of paper PMC4862054.

Legend:
Experiment in all cases: normalised viability (% of control), CellTiter-Blue; higher = more viable cells (about 100 = DMSO control)
Conditions in all cases: incubation time: 72 h
BT-549 [1] = system: BT-549
Outline: (§1)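 Normalised viability is given for a single listed concentration of the series. In 384-well plates, breast cancer cell lines were incubated 72 h with compound, then read with CellTiter-Blue (2 h, 37 °C) at 560/590 nm. Per-plate scaling set vehicle to 100 and a positive kill control to 0, with Z'-factor quality control.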

CAL-148 [2] = system: CAL-148
Outline: as §1

CAL-85-1 [3] = system: CAL-85-1
Outline: as §1

HCC1937 [4] = system: HCC1937
Outline: as §1

HDQ-P1 [5] = system: HDQ-P1
Outline: as §1

MDA-MB-231 = system: MDA-MB-231
Outline: as §1

MDA-MB-468 = system: MDA-MB-468
Outline: as §1

SK-BR-3 [6] = system: SK-BR-3
Outline: as §1

BT-474 = system: BT-474
Outline: as §1

BT-549 [7] = system: BT-549; remark: listed apart in the source
Outline: as §1

CAL-120 = system: CAL-120
Outline: as §1

CAL-148 [8] = system: CAL-148; remark: listed apart in the source
Outline: as §1

CAL-51 [9] = system: CAL-51
Outline: as §1

DU-4475 [10] = system: DU-4475
Outline: as §1

HCC1599 = system: HCC1599
Outline: as §1

HCC1937 [11] = system: HCC1937; remark: listed apart in the source
Outline: as §1

HDQ-P1 [12] = system: HDQ-P1; remark: listed apart in the source
Outline: as §1

Hs578T = system: Hs578T
Outline: as §1

MDA-MB-436 = system: MDA-MB-436
Outline: as §1

MFM-223 = system: MFM-223
Outline: as §1

SK-BR-3 [13] = system: SK-BR-3; remark: listed apart in the source
Outline: as §1

CAL-148 [14] = system: CAL-148; remark: listed apart in the source
Method: (§2)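 DSRT, CellTiter-Blue viability, 72 h incubation. Signal is normalised to DMSO and benzethonium chloride controls. Value is the normalised response at dose 6.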

CAL-51 [15] = system: CAL-51; remark: listed apart in the source
Method: as §2

CAL-85-1 [16] = system: CAL-85-1; remark: listed apart in the source
Method: as §2

DU-4475 [17] = system: DU-4475; remark: listed apart in the source
Method: as §2

HDQ-P1 [18] = system: HDQ-P1; remark: listed apart in the source
Method: as §2

MDA-MB-453 = system: MDA-MB-453
Method: as §2

Q: Nc1ccccc1NC(=O)c1ccc(CNC(=O)OCc2cccnc2)cc1 [Entinostat] was tested. Which normalised viability (BT-549 [1]; 100 nM) did it give?
A: 91.5%

Q: And the normalised viability (CAL-148 [2]; 10 nM)?
A: 93.3%

Q: And the normalised viability (CAL-85-1 [3]; 10 nM)?
A: 96.7%

Q: And the normalised viability (HCC1937 [4]; 100 nM)?
A: 104%

Q: What about the normalised viability (HDQ-P1 [5]; 10 nM) of the same compound?
A: 102%

Q: What about the normalised viability (MDA-MB-231; 100 nM) of the same compound?
A: 97.1%

Q: What about the normalised viability (MDA-MB-468; 100 nM) of the same compound?
A: 110%

Q: What about the normalised viability (SK-BR-3 [6]; 100 nM) of the same compound?
A: 85.6%

Q: What about the normalised viability (BT-474; 10 nM) of the same compound?
A: 108%

Q: And the normalised viability (BT-474; 1000 nM)?
A: 97%

Q: And the normalised viability (BT-474; 10000 nM)?
A: 31.9%

Q: What about the normalised viability (BT-549 [7]; 10 nM) of the same compound?
A: 110%

Q: What about the normalised viability (BT-549 [7]; 1000 nM) of the same compound?
A: 102%

Q: What about the normalised viability (BT-549 [7]; 10000 nM) of the same compound?
A: 61.4%

Q: What about the normalised viability (CAL-120; 10 nM) of the same compound?
A: 90.1%

Q: What about the normalised viability (CAL-120; 1000 nM) of the same compound?
A: 57.9%

Q: And the normalised viability (CAL-120; 10000 nM)?
A: 30.8%

Q: And the normalised viability (CAL-148 [8]; 3 nM)?
A: 85.4%

Q: What about the normalised viability (CAL-148 [8]; 30 nM) of the same compound?
A: 84.9%

Q: And the normalised viability (CAL-148 [8]; 100 nM)?
A: 86.7%

Q: What about the normalised viability (CAL-51 [9]; 3 nM) of the same compound?
A: 116%

Q: And the normalised viability (CAL-51 [9]; 30 nM)?
A: 106%

Q: And the normalised viability (CAL-51 [9]; 100 nM)?
A: 109%

Q: And the normalised viability (DU-4475 [10]; 3 nM)?
A: 117%

Q: And the normalised viability (DU-4475 [10]; 30 nM)?
A: 117%

Q: And the normalised viability (DU-4475 [10]; 100 nM)?
A: 105%

Q: What about the normalised viability (HCC1599; 10 nM) of the same compound?
A: 122%

Q: What about the normalised viability (HCC1599; 1000 nM) of the same compound?
A: 86.6%

Q: And the normalised viability (HCC1599; 10000 nM)?
A: 19.6%

Q: What about the normalised viability (HCC1937 [11]; 10 nM) of the same compound?
A: 124%

Q: And the normalised viability (HCC1937 [11]; 1000 nM)?
A: 82.4%

Q: What about the normalised viability (HCC1937 [11]; 10000 nM) of the same compound?
A: 56.8%

Q: What about the normalised viability (HDQ-P1 [12]; 3 nM) of the same compound?
A: 103%

Q: And the normalised viability (HDQ-P1 [12]; 30 nM)?
A: 110%

Q: And the normalised viability (HDQ-P1 [12]; 100 nM)?
A: 102%

Q: What about the normalised viability (Hs578T; 10 nM) of the same compound?
A: 100%

Q: And the normalised viability (Hs578T; 1000 nM)?
A: 97.6%

Q: What about the normalised viability (Hs578T; 10000 nM) of the same compound?
A: 25%

Q: What about the normalised viability (MDA-MB-436; 10 nM) of the same compound?
A: 115%

Q: What about the normalised viability (MDA-MB-436; 1000 nM) of the same compound?
A: 96%

Q: And the normalised viability (MDA-MB-436; 10000 nM)?
A: 52.8%

Q: What about the normalised viability (MFM-223; 10 nM) of the same compound?
A: 110%

Q: What about the normalised viability (MFM-223; 1000 nM) of the same compound?
A: 93.6%

Q: What about the normalised viability (MFM-223; 10000 nM) of the same compound?
A: 19.9%

Q: And the normalised viability (SK-BR-3 [13]; 10 nM)?
A: 108%

Q: What about the normalised viability (SK-BR-3 [13]; 1000 nM) of the same compound?
A: 45.2%

Q: What about the normalised viability (SK-BR-3 [13]; 10000 nM) of the same compound?
A: 2.8%

Q: What about the normalised viability (CAL-148 [14]; 300 nM) of the same compound?
A: 86.9%

Q: And the normalised viability (CAL-51 [15]; 300 nM)?
A: 114%

Q: What about the normalised viability (CAL-85-1 [16]; 300 nM) of the same compound?
A: 109%

Q: What about the normalised viability (DU-4475 [17]; 300 nM) of the same compound?
A: 97.9%

Q: And the normalised viability (HDQ-P1 [18]; 300 nM)?
A: 72%

Q: And the normalised viability (MDA-MB-453; 300 nM)?
A: 103%

Q: For O=C(/C=C/c1cccnc1)NCCCCC1CCN(C(=O)c2ccccc2)CC1 [FK-866], which normalised viability (BT-549 [1]; 10 nM) is on record?
A: 38.6%

Q: And the normalised viability (CAL-148 [2]; 1 nM)?
A: 91.5%

Q: What about the normalised viability (CAL-85-1 [3]; 1 nM) of the same compound?
A: 103%

Q: What about the normalised viability (HCC1937 [4]; 10 nM) of the same compound?
A: 91.1%

Q: What about the normalised viability (HDQ-P1 [5]; 1 nM) of the same compound?
A: 120%

Q: And the normalised viability (MDA-MB-231; 10 nM)?
A: 83.1%

Q: What about the normalised viability (MDA-MB-468; 10 nM) of the same compound?
A: 8.4%

Q: And the normalised viability (SK-BR-3 [6]; 10 nM)?
A: 91.2%

Q: And the normalised viability (BT-474; 1 nM)?
A: 112%

Q: And the normalised viability (BT-474; 100 nM)?
A: 56.8%

Q: And the normalised viability (BT-474; 1000 nM)?
A: 58.2%

Q: What about the normalised viability (BT-549 [7]; 1 nM) of the same compound?
A: 95%

Q: What about the normalised viability (BT-549 [7]; 100 nM) of the same compound?
A: 10.9%

Q: What about the normalised viability (BT-549 [7]; 1000 nM) of the same compound?
A: 10.7%

Q: What about the normalised viability (CAL-120; 1 nM) of the same compound?
A: 107%

Q: And the normalised viability (CAL-120; 100 nM)?
A: 24.7%

Q: What about the normalised viability (CAL-120; 1000 nM) of the same compound?
A: 23.3%

Q: And the normalised viability (CAL-148 [8]; 0.3 nM)?
A: 96.4%

Q: And the normalised viability (CAL-148 [8]; 3 nM)?
A: 94.5%

Q: What about the normalised viability (CAL-148 [8]; 10 nM) of the same compound?
A: 91.4%

Q: What about the normalised viability (CAL-51 [9]; 0.3 nM) of the same compound?
A: 113%

Q: What about the normalised viability (CAL-51 [9]; 3 nM) of the same compound?
A: 95.5%

Q: And the normalised viability (CAL-51 [9]; 10 nM)?
A: 72.8%

Q: What about the normalised viability (DU-4475 [10]; 0.3 nM) of the same compound?
A: 104%

Q: And the normalised viability (DU-4475 [10]; 3 nM)?
A: 77.2%

Q: What about the normalised viability (DU-4475 [10]; 10 nM) of the same compound?
A: 86%

Q: What about the normalised viability (HCC1599; 1 nM) of the same compound?
A: 116%

Q: And the normalised viability (HCC1599; 100 nM)?
A: 19.5%

Q: And the normalised viability (HCC1599; 1000 nM)?
A: 17%

Q: What about the normalised viability (HCC1937 [11]; 1 nM) of the same compound?
A: 93.3%

Q: What about the normalised viability (HCC1937 [11]; 100 nM) of the same compound?
A: 64.2%

Q: And the normalised viability (HCC1937 [11]; 1000 nM)?
A: 42.5%

Q: What about the normalised viability (HDQ-P1 [12]; 0.3 nM) of the same compound?
A: 109%

Q: What about the normalised viability (HDQ-P1 [12]; 3 nM) of the same compound?
A: 112%

Q: And the normalised viability (HDQ-P1 [12]; 10 nM)?
A: 98%

Q: What about the normalised viability (Hs578T; 1 nM) of the same compound?
A: 99.9%

Q: What about the normalised viability (Hs578T; 100 nM) of the same compound?
A: 15%

Q: And the normalised viability (Hs578T; 1000 nM)?
A: 15.9%

Q: And the normalised viability (MDA-MB-436; 1 nM)?
A: 96.2%

Q: And the normalised viability (MDA-MB-436; 100 nM)?
A: 23.5%

Q: What about the normalised viability (MDA-MB-436; 1000 nM) of the same compound?
A: 17.7%

Q: What about the normalised viability (MFM-223; 1 nM) of the same compound?
A: 108%

Q: And the normalised viability (MFM-223; 100 nM)?
A: 21.2%

Q: And the normalised viability (MFM-223; 1000 nM)?
A: 20.1%

Q: And the normalised viability (SK-BR-3 [13]; 1 nM)?
A: 101%

Q: And the normalised viability (SK-BR-3 [13]; 100 nM)?
A: 100%

Q: And the normalised viability (SK-BR-3 [13]; 1000 nM)?
A: 111%

Q: What about the normalised viability (CAL-148 [14]; 30 nM) of the same compound?
A: 73.7%

Q: And the normalised viability (CAL-51 [15]; 30 nM)?
A: 48.8%

Q: What about the normalised viability (CAL-85-1 [16]; 30 nM) of the same compound?
A: 72.4%

Q: And the normalised viability (DU-4475 [17]; 30 nM)?
A: 31.4%

Q: And the normalised viability (HDQ-P1 [18]; 30 nM)?
A: 64.3%

Q: And the normalised viability (MDA-MB-453; 30 nM)?
A: 23.8%
